Key:
[1] = Mouse microsomal stability; type: in vitro ADME; settings: female, CD-1, pH 7.4; mouse liver microsomes; read-out: Mouse Microsomal Stability T1/2
Protocol: The tested product and propranolol, used as reference, were incubated in duplicate (reaction volume of 0.5 mL) with female mouse microsomes (CD-1, 20 mg/mL, BD Gentest™) at 37 °C in a 50 mM phosphate buffer, pH 7.4, in the presence of MgCl2 (5 mM), NADP (1 mM), glucose-6-phosphate dehydrogenase (0.4 U/mL) and glucose-6-phosphate (5 mM). […] After centrifugation at 10,000× g, 10 min, 4 °C, the supernatants were maintained at 4 °C for immediate analysis or placed at -80 °C for later analysis. Controls (t0 and tfinal) in triplicate were prepared by incubation of the internal standard with microsomes denatured by acetonitrile. […] The mobile phases were (A) ammonium acetate 10 mM and (B) acetonitrile with 0.1% formic acid. The injection volume was 1 µL and the flow rate 600 µL/min. […] Each compound was quantified by converting the average of the ratios of the analyte/internal standard surfaces to the percentage of product consumed. The ratio of the control at t0 corresponded to 0% of product consumed. The half-life (T1/2) of each compound in the presence of microsomes was calculated according to the equation: t1/2=ln(2)/k , where k is the first-order degradation constant (the slope of the logarithm of compound concentration versus incubation time). The intrinsic clearance in vitro (Clint expressed in μL/min/mg) is calculated according to the equation: Clint=dose/AUC∞/[microsomes] where “dose” is the initial concentration of product in the sample, AUC∞ is the area under the concentration-time curve extrapolated to infinity and [microsomes] is the microsome concentration expressed in mg/µL.

[2] = Redox potential of the nitro group by cyclic voltammetry; type: physicochemical; settings: cyclic voltammetry in DMSO, corrected versus NHE
Protocol: Voltammetric measurements were carried out with a potentiostat Autolab PGSTAT100 (ECO Chemie, Utrecht, The Netherlands) controlled by GPES 4.09 software (ECO Chemie, Utrecht, The Netherlands). Experiments were performed at room temperature in a homemade airtight three–electrode cell connected to a vacuum/argon line. The reference electrode consisted of a saturated calomel electrode (SCE) separated from the solution by a bridge compartment. The counter electrode was a platinum wire of 1 cm^2 apparent surface. The working electrode was a GC microdisk (1.0 mm in diameter–Bio-logic SAS). The supporting electrolyte (nBu4N)[PF6] (Fluka, 99% puriss electrochemical grade) and the solvent DMSO (Sigma-Aldrich puriss p.a. dried <0.02% water) were used as received and simply degassed under argon. The solutions used during electrochemical analyses were typically 10^−3 M in compound and 0.1 M in supporting electrolyte. Before each measurement, the solutions were degassed by bubbling Ar, and the working electrode was polished with a polishing machine (Presi P230, Eybens, France). Under the experimental conditions adopted in this work, the half-wave potential (E1/2) of the ferrocene Fc+/Fc couple in DMSO was E1/2 = 0.45 V vs. SCE. Experimental peak potentials were measured versus SCE and converted to NHE by adding 0.241 V.

[3] = Cytotoxicity evaluation on HepG2 cell line (MTT); type: cell-based; settings: human, HepG2 cells
[4] = Parallel artificial membrane permeability assay (PAMPA); type: in vitro ADME
[5] = Cytotoxicity on THP-1 cell line (MTT); type: cell-based; settings: human, THP-1 cells, THP1 cell line
In short: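 THP-1 cells exposed to compounds for 72 h at 37 °C, then MTT (0.5 mg/mL) for 2 h, absorbance at 570 nm. Viability expressed relative to DMSO-treated cells; CC50 is the mean of three independent experiments.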

[6] = Thermodynamic solubility at pH 7.4 (miniaturized shake-flask); type: physicochemical; settings: pH 7.4, PBS, 24 h, 23 °C
Protocol: Thermodynamic solubility at pH 7.4 of compounds was determined according to a miniaturized shake-flask method (Organisation for Economic Cooperation and Development guideline n°105). Phosphate Buffer solutions (pH 7.4, […], ionic strength […]) were prepared from Na2HPO4, KH2PO4 and KCl (Sigma Aldrich, Saint Quentin Fallavier, France); 10 µL of 20 mM stock solution were added to 5 mL glass tubes containing […] buffer (n = 3). The tubes were briefly sonicated and shacked by inversion during 24 h at 23 °C. Then, the tube contents were placed in a microtube which was centrifuged at 12,225× g for 10 min; 100 µL supernatant were mixed with 100 µL acetonitrile in a Greiner UV microplate. Standard solutions were prepared extemporaneously, diluting 20 mM DMSO stock solutions at […]; 5 µL of each working solution were diluted with 995 µL buffer and 100 µL were then mixed in microplates with 100 µL acetonitrile so as to ensure that the final proportions of each solvent in standard solutions and samples remained unchanged. Solubility at pH 7.4 was determined with an Infinite M200Pro (Tecan, Lyon, France) microplate reader in spectrophotometric mode (230 to 450 nm) from the specific λmax of each compound. The calibration curve was obtained from the […] standard solutions of tested compounds at 0, 25, 50, and 100 µM in a 50:50 (vol/vol) mixture of buffer with acetonitrinile/DMSO (99:1; vol/vol). Calibration curves were linear with R^2 > 0.99.

O=[N+]([O-])c1c(CS(=O)(=O)c2ccccc2)nc2c(Sc3ccc(Cl)cc3)cc(Cl)cn12 [Hit B, reference compound]
half-life [1]: 3 min | E0 (redox potential of the nitro group) [2]: −0.63 V | CC50 at 72 h [3]: > 100 µM | PAMPA GIT at pH 7.4 Pe [4]: 4.0 nm/s | Papp at 4 h, 100 µM ([4]; PAMPA, pH 7.4, read-out: PAMPA GIT at pH 7.4 Pe): 0.4 ± 0.06 ×10⁻⁶ cm/s | CC50 at 72 h [5]: > 62.5 µM | Thermodynamic Solubility at pH 7.4 in PBS [6]: 1.4 ± 0.5 µM

— paper PMC9415646, “Improving Aqueous Solubility and In Vitro Pharmacokinetic Properties of the 3-Nitroimidazo[1,2-a]pyridine Antileishmanial Pharmacophore” (Pharmaceuticals, 2022)
